For experiment [1], the system named is cytokine levels (TNFα, IL-2, IFNγ and IL-4). The experiment is described as follows: Anti-CD3 induced cytokine release in the mouse. The following applies: 100 mg/kg p.o. 30 minutes before anti-CD3, blood 90 minutes after anti-CD3, compared to control group 2. The class given is in vivo. As for the experimental part: In this mouse model, T cells and NK cells were activated in situ by the intraperitoneal (i.p.) injection of an anti-CD3 antibody into mice that had been pre-treated for 30 minutes with certain compounds of the invention (100 mg/kg po administration). Blood samples were collected 90 minutes after anti-CD3 injection. Plasma samples were prepared and the cytokine levels (Tumor Necrosis factor alpha (TNFα), Interleukin-2 (IL-2), Interferon-gamma (IFNγ) and Interleukin-4 (IL-4)) were measured using a Cytometric Bead Array method.
A single dose of test compound was administered p.o. 30 minutes before anti-CD3 injection. 90 minutes after anti-CD3 injection blood samples were collected for cytokine analysis (approximately 400 μl whole blood anti-coagulated with Na-heparin) and stored frozen until use.
The cytokine measurement was done using the mouse Cytometric Bead Array (CBA) Th1/Th2 kit (BD Biosciences, San Diego, Calif., USA; catalogue number 551287) according to the manufacturer's instruction with the following modifications: all reagents were downscaled by a factor of 2 and the mixture of plasma, beads and detection reagents was done in 96-U-bottom plates. Standards and samples were acquired on a FACSCalibur® instrument (Becton Dickinson) using an HTS plate loader. Data were analysed with the CBA Software provided by Becton Dickinson which draws standard curves and converts mean fluorescence values into concentration values (pg/ml).
Animals: male C57BL/6J mice, 9 weeks old (Janvier, Le Genest St Isle, France).
Test compounds were dosed orally (p.o.) at 100 mg/kg (vehicle: 0.5% CMC, application volume 10 ml/kg).
Anti-CD3 antibody (BD Bioscience, catalogue number 553057): 200 μl of a 10 μg/ml solution in PBS were applied i.p. (2 μg per mouse).

Experiment [2] has as its system Akt serine-473 phosphorylation. In words: In vitro Phospho-Akt cellular assay (pAkt S473) in HEK293T/17 cells. The class given is cell-based. The following applies: Homo sapiens, 2 hours. An outline of the steps:
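Compounds were tested at eight concentrations on adhered HEK293T/17 cells for 2 h at 37 °C (2% FCS, 0.1% DMSO), at 80,000 cells/well for pAkt S473 and 40,000 for pS6RP S240/244. Lysates were captured on phospho-specific antibody MSD plates with Sulfo-Tag detection. Values came from nonlinear variable-slope regression.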

Experiment [3] has as its target T1, PI3Kalpha (PI3Ka) (Homo sapiens, UniProt P42336).
T1 construct: endogenous in cells; host or cells: cell lysate
In words: kinobeads assay, PI3Kalpha. The class given is binding. The following applies: kinobeads assay, Table 6. An outline of the steps: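 Cell lysate aliquots are incubated with compound over a concentration range and with an affinity matrix of immobilized phenylmorpholin-chromen ligand. Beads are then removed, bound proteins eluted, and each kinase is quantified by multiplexed immunodetection to derive IC50 values.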

T1 sequence (P42336 whole entry): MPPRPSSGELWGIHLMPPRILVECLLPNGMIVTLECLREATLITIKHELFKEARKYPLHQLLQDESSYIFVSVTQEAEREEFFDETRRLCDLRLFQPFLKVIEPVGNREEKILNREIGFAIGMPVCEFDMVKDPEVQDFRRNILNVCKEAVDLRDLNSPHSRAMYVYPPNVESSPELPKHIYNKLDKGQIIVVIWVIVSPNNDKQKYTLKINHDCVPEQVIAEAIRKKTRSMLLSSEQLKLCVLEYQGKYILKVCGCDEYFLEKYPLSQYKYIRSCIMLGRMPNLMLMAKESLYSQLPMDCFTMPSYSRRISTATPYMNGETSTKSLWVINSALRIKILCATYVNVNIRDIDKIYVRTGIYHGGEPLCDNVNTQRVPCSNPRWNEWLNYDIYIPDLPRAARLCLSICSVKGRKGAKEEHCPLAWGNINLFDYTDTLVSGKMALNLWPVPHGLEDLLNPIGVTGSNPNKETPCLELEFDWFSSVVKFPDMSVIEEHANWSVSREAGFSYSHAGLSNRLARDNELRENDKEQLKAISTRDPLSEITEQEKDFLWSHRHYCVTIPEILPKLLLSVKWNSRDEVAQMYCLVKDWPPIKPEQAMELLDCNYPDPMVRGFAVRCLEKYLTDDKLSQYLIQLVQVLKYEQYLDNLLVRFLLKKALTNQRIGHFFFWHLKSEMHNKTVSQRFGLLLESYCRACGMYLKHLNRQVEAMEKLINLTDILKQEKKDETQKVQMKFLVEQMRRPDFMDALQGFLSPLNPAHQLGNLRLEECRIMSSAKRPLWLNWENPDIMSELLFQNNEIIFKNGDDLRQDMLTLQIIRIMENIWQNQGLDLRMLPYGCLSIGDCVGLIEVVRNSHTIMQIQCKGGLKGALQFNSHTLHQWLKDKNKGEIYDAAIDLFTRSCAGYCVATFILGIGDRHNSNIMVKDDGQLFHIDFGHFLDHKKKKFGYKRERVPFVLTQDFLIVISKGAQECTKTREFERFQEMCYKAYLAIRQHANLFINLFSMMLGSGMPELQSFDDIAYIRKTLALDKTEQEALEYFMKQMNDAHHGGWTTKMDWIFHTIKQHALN
T1 sequence (P27986 whole entry partner): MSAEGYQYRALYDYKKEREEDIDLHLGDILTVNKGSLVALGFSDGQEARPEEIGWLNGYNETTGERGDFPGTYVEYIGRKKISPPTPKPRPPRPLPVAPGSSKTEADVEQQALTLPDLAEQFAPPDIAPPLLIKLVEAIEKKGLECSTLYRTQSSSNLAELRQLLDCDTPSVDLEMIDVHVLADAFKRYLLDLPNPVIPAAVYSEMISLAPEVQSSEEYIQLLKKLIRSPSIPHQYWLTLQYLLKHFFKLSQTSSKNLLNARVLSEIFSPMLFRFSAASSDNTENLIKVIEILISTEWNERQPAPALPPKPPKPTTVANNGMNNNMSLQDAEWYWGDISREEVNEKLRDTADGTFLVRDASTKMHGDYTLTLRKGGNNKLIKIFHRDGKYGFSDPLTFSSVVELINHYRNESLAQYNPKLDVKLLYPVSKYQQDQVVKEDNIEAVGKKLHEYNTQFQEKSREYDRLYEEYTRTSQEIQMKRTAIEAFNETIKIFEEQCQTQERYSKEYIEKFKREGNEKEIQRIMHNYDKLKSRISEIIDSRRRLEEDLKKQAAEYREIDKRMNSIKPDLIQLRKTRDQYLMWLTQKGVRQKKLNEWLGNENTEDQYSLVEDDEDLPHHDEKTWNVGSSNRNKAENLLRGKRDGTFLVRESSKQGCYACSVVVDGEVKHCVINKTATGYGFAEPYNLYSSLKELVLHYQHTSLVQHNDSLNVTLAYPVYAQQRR

As to `CCOC(=O)N1Cc2nc(-c3ccc(NC(=O)NC4CC4)cc3F)nc(N3CCOC[C@@H]3C)c2C1` [Example 131, (S)-ethyl 2-(4-(3-cyclopropylureido)-2-fluorophenyl)-4-(3-methylmorpholino)-5H-pyrrolo[3,4-d]pyrimidine-6(7H)-carboxylate], in experiment [1], the IFNγ plasma levels result was “reduction”, the IL-2 plasma levels result was “reduction”, the IL-4 plasma levels entry was “reduction” and the TNFα plasma levels entry is reported as “reduction”. Moreover, the concentration for half-maximal inhibition (IC50) (usually the concentration needed to halve the response being measured) in experiment [2] is 0.049 µM. In addition, the “Inhibition values (IC50) PI3Ka” value in experiment [3] is recorded as “D (D >10 μM)”.

The values are drawn from patent US8785457B2 (Cellzome Limited, priority 2009, dated 2014).
